Test results: paper PMC4333176, “Heterologous expression and biochemical characterization of a highly active and stable chloroplastic CuZn-superoxide dismutase from Pisum sativum” (BMC Biotechnology, 2015)

T1: PschSOD (recombinant chloroplastic CuZn-SOD) (Lathyrus oleraceus, UniProt P11964)
T1 construct: gene SODCP; mature form without chloroplast transit peptide (forward primer encodes MAAKKAVA), pET-28a His-tag kept, E. coli BL21 (DE3), Cu/Zn supplemented, ~18 kDa subunit, homodimer 36-38 kDa
T1 sequence (P11964 49-202): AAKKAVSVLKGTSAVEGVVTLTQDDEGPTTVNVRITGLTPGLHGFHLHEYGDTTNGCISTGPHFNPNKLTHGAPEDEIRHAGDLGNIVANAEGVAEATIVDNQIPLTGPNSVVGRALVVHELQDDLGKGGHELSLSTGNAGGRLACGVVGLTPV


Legend:
[1] = biological target: T1, PschSOD (recombinant chloroplastic CuZn-SOD); assay: pyrogallol autoxidation SOD assay, residual activity; assay type: biochemical; conditions: superoxide from pyrogallol autoxidation; no constant
[2] = biological target: the molecule itself; assay: SEC; analytical gel filtration on a Bio-Sil 250 column, 5 mM K-PO4 pH 7.2 with 150 mM NaCl, calibrated with standard proteins; native mass compared with subunit mass on 15% SDS-PAGE

| Molecule | pyrogallol autoxidation SOD assay, residual activity [1] | stoichiometry N [2] |
| --- | --- | --- |
| [O]O [O2^∙−, superoxide anion] | Superoxide dismutase specific activity of PschSOD, assayed by pyrogallol method | – |
| Pisum sativum chloroplastic CuZn-superoxide dismutase (PschSOD), recombinant, without chloroplast transit peptide (enzyme, Pisum sativum (pea), UniProt P11964 49-202, looked up, the forward primer (NdeI, [residues removed]) encodes M-AAKKAVA, the reverse primer ends at ...GLTPV and the stop codon; Cloned NdeI/BamHI into pET-28a; One Cu and one Zn per subunit (about 1.84 Cu and 1.6 Zn per dimer); also called Pisum sativum SOD II; pea chloroplastic SOD; source: E. coli BL21 (DE3), pET-28a, purified (Ni-NTA, desalting, buffer exchange, dialysis)) AAKKAVSVLKGTSAVEGVVTLTQDDEGPTTVNVRITGLTPGLHGFHLHEYGDTTNGCISTGPHFNPNKLTHGAPEDEIRHAGDLGNIVANAEGVAEATIVDNQIPLTGPNSVVGRALVVHELQDDLGKGGHELSLSTGNAGGRLACGVVGLTPV | – | 2 |
